“And” between values parts separate entries of the source, which are not always exact repeats. Equal values may be shown once.
How the values were obtained:
[1] = test system: human AML cell line MV4-11 xenografts; assay: Combination therapy in a xenograft mouse model; assay type: in vivo, nu/nu MF1 mouse; conditions: for Fractional Tumor Volume (FTV) relative to untreated controls: single agent; for Average volume of tumors at 7 days post-treatment (tumor volume change): group average, Cytarabine 80 mg/kg/daily i.p.; for Average volume of tumors at 7 days post-treatment (tumor volume change) / Volume of individual tumors at 7 days post-treatment (indicating tumor volume change): day 7, AS1411 40 mg/kg/day s.c. minipump; for Volume of individual tumors at 7 days post-treatment (indicating tumor volume change): individual mice, Cytarabine 80 mg/kg/daily i.p. 5 days
Protocol: The nu/nu MF1 mouse strain has been used previously at these laboratories and background data are available. A total of 50 female MF1 mice were obtained from the Biological Research Facility, SGHMS, London) in a weight range of 5 to 6 weeks of age (nominally 23-28 g). Mice were individually identified using a subcutaneously implanted microchip.
The xenografts were prepared from the human AML cell line MV4-11 (DSMZ Number: CCL-102). Cells were grown in accordance with Standard Operating Procedures (SOP) and established methodology; suitable methods are known in the art. Cells were suspended at 2.0×10^8 cells/ml in ice-cold PBS, mixed 1:1 with ice-cold Matrigel™ Matrix (BD Biosciences, Lot 61459) and kept on ice until the time of injection into animals. Mice were injected subcutaneously with 100 μl cell suspension on the right flank.
Animals were checked regularly until visible tumors appeared. Tumors were measured in accordance with the relevant SOP twice per week and tumor volume calculated using the formula: Volume=(π÷6000)×(Tumor Length×Tumor Width×Tumor Height).
Measurements commenced approximately one week before the day of treatment when the xenograft had reached a volume of >0.03 cm^3.
Once the tumors were established, mice were allocated into groups using a randomisation procedure based on stratified xenograft volume. Measurements were recorded electronically using electronic calipers and the Trojan system for data capture.
Day 0 is defined as the day on which the average tumor volume is between 0.07 to 0.08 cm^3. Relative tumor volume on Day 0 is defined as 1.
AS1411 (manufactured by Avecia, UK, batch number: AQV-07H-005; expiry date 02/2009) was given by continuous infusion using ALZET mini-osmotic pumps (Durect Corp. CA, USA). The mini-pumps were implanted subcutaneously on days 0 on the left flank of mice (opposite to the tumor location). Mice received a dose of 40 mg/kg/day with a dose-volume of 1 μl/h lasting for 7 days. The minipumps were then removed and a second drug-loaded minipump implantation in the same location to last a further 7 days.
The intraperitoneal route of administration of Cytarabine was selected. Mice were administered with Cytarabine (DBL, Australia; batch number: TO11966AA; expiry date 02/2009) at 80 mg/kg/daily for 5 consecutive days with a dose-volume of 8 μl/g body weight starting on day 0. After 2 days gap a second cycle of a similar 5-day dosing was initiated on day 7. Control mice were untreated.
Mice (n=10) were allocated to groups as follows: • Untreated controls • Cytarabine alone • AS1411 alone • Cytarabine+AS1411
The Fractional Product method was used to analyse the combination therapy (Yokohama et al., 2000, Cancer Res., 60:2190-6). According to this method, the effects of two drugs, when combined, can be calculated by multiplying the fractional tumor volume (treated volume/control volume on a given day) by each single drug. If the effect of the drugs acting simultaneously is equal to or larger than that calculated, it would be assumed that additivity, or synergism, respectively, has occurred.
[Mean tumor volume test]/[Mean tumor volume control]
[Mean FTV of […]]×[Mean FTV of AS1411]
[Expected FTV]/[Observed FTV]
A combination therapy index R>1.0 indicates a synergistic effect.
A combination therapy index R<1.0 indicates a less than additive effect.

[2] = test system: MV4-11 cells (AML cell line); assay: Sulphorhodamine B assay, MV4-11 cells; assay type: cell-based, human; conditions: 6 days
Protocol: 1 μM AS1411 was added with varying concentrations of cytarabine (0.002 to 1.5 μM) and cells were incubated for 6 days. A control was run with the 1 μM AS1411 without cytarabine. A second control series was run with the varying amounts of cytarabine but with no AS1411 present.
The remaining cell mass after exposure to AS1411 was measured with a spectrophotometer and IC50 determined.

SKOV-3 = assay: Tumor cell line sensitivity to AS1411; assay type: cell-based
ZR75-1 = assay: Tumor cell line sensitivity to AS1411; assay type: cell-based
PC3 = assay: Tumor cell line sensitivity to AS1411; assay type: cell-based
SK-MEL-28 = assay: Tumor cell line sensitivity to AS1411; assay type: cell-based
KATO III = assay: Tumor cell line sensitivity to AS1411; assay type: cell-based
CALU06 = assay: Tumor cell line sensitivity to AS1411; assay type: cell-based
DU-145 = assay: Tumor cell line sensitivity to AS1411; assay type: cell-based
U87-MG = assay: Tumor cell line sensitivity to AS1411; assay type: cell-based
MCF-7 = assay: Tumor cell line sensitivity to AS1411; assay type: cell-based
AML cell line = assay: Apoptosis, caspase, DNA fragmentation, PS externalization and cell cycle effects of AS1411 in AML cell line; assay type: cell-based; conditions: AS1411 administered to AML cell line
A549 = assay: Tumor cell line sensitivity to AS1411; assay type: cell-based
B cells = assay: Effect of AS1411 on normal cells; assay type: cell-based; conditions: similar concentrations of AS1411
Excerpt: (§1) Multiple haematological cancer cell lines were exposed to varying concentrations of AS1411 over a period of 6 days according to the Sulphorhodamine B assay described in Example 1. […] (See FIG. 2). […] Normal fibroblast and B cells were however unaffected by similar concentrations of AS1411.

Normal fibroblast = assay: Effect of AS1411 on normal cells; assay type: cell-based; conditions: similar concentrations of AS1411
Excerpt: as §1

LS174T = assay: Tumor cell line sensitivity to AS1411; assay type: cell-based
PANC-1 = assay: Tumor cell line sensitivity to AS1411; assay type: cell-based
KG-1 (AML cell line) = assay: Sulphorhodamine B assay, KG-1 cells; assay type: cell-based; conditions: 6 days, SRB
Protocol: (§2) MV4-11 cells (AML cell line available and obtained from ATCC under catalogue number CRL-9591) were seeded in wells of a 96-well plate at a number optimised for each cell line. 1 μM AS1411 was added with varying concentrations of cytarabine (0.002 to 1.5 μM) and cells were incubated for 6 days. A control was run with the 1 μM AS1411 without cytarabine. A second control series was run with the varying amounts of cytarabine but with no AS1411 present.
(§3) Cells were then washed, fixed to the 96-well plate and exposed to the dye Sulphorhodamine B (SRB; available from Sigma-Aldrich, Dorset, UK; catalogue number S-1402). The remaining cell mass after exposure to AS1411 was measured with a spectrophotometer and IC50 determined.
as §1

HL-60 (AML cell line) = assay: Sulphorhodamine B assay, HL-60 cells; assay type: cell-based; conditions: 6 days, SRB
Protocol: as §2, §3, §1

HT-29 = assay: Tumor cell line sensitivity to AS1411; assay type: cell-based
HGC.27 = assay: Tumor cell line sensitivity to AS1411; assay type: cell-based
A498 = assay: Tumor cell line sensitivity to AS1411; assay type: cell-based

Nc1ccn([C@@H]2O[C@H](CO)[C@@H](O)[C@@H]2O)c(=O)n1 [Cytarabine, 1β-arabinofuranosylcytosine, reference compound]
Relative tumor volume (relative to tumor volume at Day 0 of treatment) ([1]; Day 0 (defined as 1)): 1.000 | Relative tumor volume (relative to tumor volume at Day 0 of treatment) ([1]; Day 4): 1.900 | Fractional Tumor Volume (FTV) relative to untreated controls ([1]; Day 4): 0.713 | Relative tumor volume (relative to tumor volume at Day 0 of treatment) ([1]; Day 7): 3.100 | Fractional Tumor Volume (FTV) relative to untreated controls ([1]; Day 7): 0.844 | Average volume of tumors at 7 days post-treatment (tumor volume change) [1]: Average = 3.1 | Volume of individual tumors at 7 days post-treatment (indicating tumor volume change) [1]: 7.2 and 3.5 and 2.8 and 1.5 and 2.4 (2×) and 3.4 and 2.5 and 2.2 and 1.1 | reduction of IC50 of cytarabine by combination with AS1411 ([2]; cytarabine 0.002 to 1.5 μM with 1 μM AS1411 vs cytarabine alone): more than three-fold

5′-GGTGGTGGTGGTTGTGGTGG TGGTGG-3′ [AS1411]
Relative tumor volume (relative to tumor volume at Day 0 of treatment) ([1]; Day 0 (defined as 1)): 1.000 | Relative tumor volume (relative to tumor volume at Day 0 of treatment) ([1]; Day 4): 2.500 | Fractional Tumor Volume (FTV) relative to untreated controls ([1]; Day 4): 0.848 | Relative tumor volume (relative to tumor volume at Day 0 of treatment) ([1]; Day 7): 3.900 | Fractional Tumor Volume (FTV) relative to untreated controls ([1]; Day 7): 0.915 | Average volume of tumors at 7 days post-treatment (tumor volume change) [1]: Average = 3.9 | Volume of individual tumors at 7 days post-treatment (indicating tumor volume change) [1]: 3.5 and 5.9 and 3.0 and 3.3 and 4.8 and 5.5 and 2.5 (2×) and 3.8 and 4.5 and 1.1 | sensitivity to AS1411 (SKOV-3): sensitivity | sensitivity to AS1411 (ZR75-1): sensitivity | sensitivity to AS1411 (PC3): sensitivity | sensitivity to AS1411 (SK-MEL-28): sensitivity | sensitivity to AS1411 (KATO III): sensitivity | sensitivity to AS1411 (CALU06): sensitivity | sensitivity to AS1411 (DU-145): sensitivity | sensitivity to AS1411 (U87-MG): sensitivity | sensitivity to AS1411 (MCF-7): sensitivity | DNA fragmentation (AML cell line): dose-dependent increase | PS externalization (AML cell line): increase | apoptosis (AML cell line): induction | caspase activity (AML cell line): increase | cell cycle effect in tumor cells (AML cell line): arrest at the S-phase | sensitivity to AS1411 (A549): sensitivity | effect on normal cells (B cells): unaffected | effect on normal cells (Normal fibroblast): unaffected | sensitivity to AS1411 (LS174T): sensitivity | sensitivity to AS1411 (PANC-1): sensitivity | IC50 (KG-1 (AML cell line)): low | IC50 (HL-60 (AML cell line)): low | sensitivity to AS1411 (HT-29): sensitivity | IC50 ([2]; AS1411 alone, SRB): low | sensitivity to AS1411 (HGC.27): sensitivity | sensitivity to AS1411 (A498): sensitivity

Source: US20090131351A1, “Methods, compositions, and kits for modulating tumor cell proliferation” (Antisoma Research Limited, priority 2007, published 2009)
